Measurements from US20260131007A1, “Mannose 6-Phosphate Receptor Binding Compounds for the Degradation of Extracellular Proteins” (Avilar Therapeutics, Inc., priority 2023, published 2026).

The compounds below were run against T1, Insulin-like growth factor 2 receptor (IGF-1IR, cation-independent mannose-6-phosphate receptor, CI-MPR; hIGF-IIR) (Homo sapiens, UniProt P11717) (assay: HTRF-based ternary complex inhibition assay for relative affinity of IGF-IIR ligands). Settings: competition with MTAC probe for His-tagged hIGF-IIR; biotinylated IgG1; apparent binding affinity; read-out: TCF INH (HTRF) IC50.
T1 construct: purchased R&D Systems 6418-GR
Procedure: The apparent binding affinity of Insulin-like growth factor 2 receptor (IGF-1IR, also called the cation- independent mannose-6-phosphate receptor (CI-MPR)) ligands was determined indirectly by competing with a probe molecule for binding to IGF-1IR. The probe is a Mannose 6-Phosphate Ligand (“Ligand”) and binds to hIGF-IIR and IgG1 to form a hIGF-IIR: Ligand: IgG1 ternary complex. The ternary complex was detected by an HTRF readout. The ternary complex is disrupted in the presence of IGF-1IR ligand, resulting in decreased HTRF signal. IGF-1IR ligands of 3-fold dilution series were prepared from 10 mM DMSO stock on a 384-well LDV microplate using Echo Acoustic Liquid Handler (Beckman Coulter Life Sciences) followed by transfer of 600 nL of the solutions to an OptiPlate 384-well microplate (PerkinElmer, 6007290). Manose-6-phosphate (M6P; J&K, 530168) and glucose-6-phosphate (G6P; Sigma, V900924) were prepared from 100 mM stock in the same manner and were used as positive and negative controls, respectively. The wells used as 0% and 100% inhibition controls were prepared by adding 600 nL DMSO. 20 nL of 50 μM MTAC probe was transferred to all wells except the wells used as 100% Inhibition control. 9.4 μL working solution containing 65.1 nM of Biotinylated-IgG1 (Viva 20211108) and 65.1 nM of His-tagged hIGF-IIR (R&D Systems, 6418-GR) in assay buffer 50 mM Tris, pH 7.5, 150 mM NaCl, 50 mM CaCl2, 0.01% Tween-20 was transferred to all wells. The plate was incubated at room temperature for 60 min with gentle shaking to allow molecular interaction to reach equilibration. Following this, 10 μL of HTRF detection solution containing 15 nM Streptavidin-d2 (PerkinElmer, 610SADLA) and 0.7 nM MAb Anti 6HIS—Tb cryptate (PerkinElmer, 61HISTLA) in PPI Terbium detection buffer (PerkinElmer, 61DB10RDF) was added. The assay plate was incubated at room temperature with gentle shaking for 60 min to allow HTRF signal to develop. The plate was gently spun on a centrifuge then placed on a EnVision plate reader (Perkin Elmer, EnVision 2104) to read fluorescence ratio of 665 nm/615 nm. Percent inhibitions were calculated with this equation: % I=100* [1−(X−100% I/(0% I−100% I)] where X is the […] in the presence of IGF-1IR ligand. The apparent binding affinity (presented as IC50) was calculated by fitting the % inhibition data with a non-linear 4-parameter inhibition equation using GraphPad Prism (GraphPad Software, LLC; version 9.4.1).

For COC(=O)c1ccc(O[C@H]2O[C@H](CNc3c(O)c(=O)c3=O)[C@@H](O)[C@H](O)[C@@H]2O)cc1 [Compound A7, methyl 4-(((3S,4S,5S,6R)-3,4,5-trihydroxy-6-(((2-hydroxy-3,4-dioxocyclobut-1-en-1-yl)amino)methyl)tetrahydro-2H-pyran-2-yl)oxy)benzoate], which IC50 is on record?
The IC50 was 100 to 300 µM.

How did the IC50 turn out when C#C[C@H]1O[C@H](CCP(=O)(O)O)[C@@H](O)[C@H](O)[C@@H]1O [Compound A20, (2-((2R,3S,4S,5S,6R)-6-ethynyl-3,4,5-trihydroxytetrahydro-2H-pyran-2-yl)ethyl)phosphonic acid] was run?
The IC50 was under 10 µM.

Which IC50 does the source give for COCP(=O)(O)CC[C@H]1O[C@H](Oc2ccccc2)[C@@H](O)[C@@H](O)[C@@H]1O [Compound A45, methoxymethyl-[2-[(2R,3S,4S,5S,6R)-3,4,5-trihydroxy-6-phenoxy-tetrahydropyran-2-yl]ethyl]phosphinic acid] here?
The IC50 was 10 to 100 µM.

With O=P(O)(CC[C@H]1O[C@H](Oc2ccccc2)[C@@H](O)[C@@H](O)[C@@H]1O)Cc1ccccc1O [Compound A46, (2-hydroxybenzyl) (2-((2R,3S,4S,5S,6R)-3,4,5-trihydroxy-6-phenoxytetrahydro-2H-pyran-2-yl)ethyl)phosphinic acid] as the compound, how does the IC50 read?
The IC50 was under 10 µM.

How did the IC50 turn out when C#CCCCCNC(=O)Nc1ccc2c(c1)Cc1cc(O[C@H]3O[C@H](CCP(=O)(O)O)[C@@H](O)[C@H](O)[C@@H]3O)ccc1-2 [Compound A83, (2-((2R,3S,4S,5S,6R)-6-((7-(3-(hex-5-yn-1-yl)ureido)-9H-fluoren-2-yl)oxy)-3,4,5-trihydroxytetrahydro-2H-pyran-2-yl)ethyl)phosphonic acid] was run?
Its IC50 is under 10 µM.

How did the IC50 turn out when O=P(O)(O)CC[C@H]1O[C@H](/C=C/c2ccccc2)[C@@H](O)[C@@H](O)[C@@H]1O [Compound A21, (2-((2R,3S,4S,5S,6R)-3,4,5-trihydroxy-6-((E)-styryl)tetrahydro-2H-pyran-2-yl)ethyl)phosphonic acid] was run?
Its IC50 is 10 to 100 µM.

How did the IC50 turn out when COc1ccc(OC2O[C@H](CCP(=O)(O)CC(F)(F)F)[C@@H](O)[C@H](O)[C@@H]2O)cc1 (stereo partly drawn) [Compound A80, (2,2,2-trifluoroethyl) (2-((2R,3S,4S,5S)-3,4,5-trihydroxy-6-(4-methoxyphenoxy)tetrahydro-2H-pyran-2-yl)ethyl)phosphinic acid] was run?
Its IC50 is 10 to 100 µM.

How did the IC50 turn out when COc1ccc(O[C@H]2O[C@H](CCP(=O)(O)Cc3c(F)cccc3Cl)[C@@H](O)[C@H](O)[C@@H]2O)cc1 [Compound A51, (2-chloro-6-fluorobenzyl) (2-((2R,3S,4S,5S,6R)-3,4,5-trihydroxy-6-(4-methoxyphenoxy)tetrahydro-2H-pyran-2-yl)ethyl)phosphinic acid] was run?
Its IC50 is under 10 µM.

For O=P(O)(O)CC[C@H]1OC(C#Cc2ccccc2)[C@@H](O)[C@@H](O)[C@@H]1O (stereo partly drawn) [Compound A16, (2-((2R,3S,4S,5S)-3,4,5-trihydroxy-6-(phenylethynyl)tetrahydro-2H-pyran-2-yl)ethyl)phosphonic acid], which IC50 is on record?
The IC50 was under 10 µM.

CCCP(=O)(O)CC[C@H]1OC(Oc2ccc(OC)cc2)[C@@H](O)[C@@H](O)[C@@H]1O (stereo partly drawn) [Compound A57, propyl(2-((2R,3S,4S,5S)-3,4,5-trihydroxy-6-(4-methoxyphenoxy)tetrahydro-2H-pyran-2-yl)ethyl)phosphinic acid] was tested. Which IC50 did it give?
Its IC50 is under 10 µM.

With O=P(O)(O)CC[C@H]1O[C@H](c2cn(CCc3ccccc3)nn2)[C@@H](O)[C@@H](O)[C@@H]1O [Compound A17, (2-((2R,3S,4S,5S,6R)-3,4,5-trihydroxy-6-(1-phenethyl-1H-1,2,3-triazol-4-yl)tetrahydro-2H-pyran-2-yl)ethyl)phosphonic acid] as the compound, how does the IC50 read?
The IC50 was under 10 µM.

Which IC50 does the source give for CS(=N)(=O)CC[C@H]1O[C@H](O)[C@@H](O)[C@@H](O)[C@@H]1O (stereo partly drawn) [Compound A1, imino(methyl) (2-((2R,3S,4S,5S,6S)-3,4,5,6-tetrahydroxytetrahydro-2H-pyran-2-yl)ethyl)-16-sulfanone] here?
Its IC50 is under 10 µM.

With CO[C@H]1O[C@H](CCS(=O)(=O)Nc2ncccn2)[C@@H](O)[C@H](O)[C@@H]1O [Compound A9, N-(pyrimidin-2-yl)-2-((2R,3S,4S,5S,6S)-3,4,5-trihydroxy-6-methoxytetrahydro-2H-pyran-2-yl)ethane-1-sulfonamide] as the compound, how does the IC50 read?
Its IC50 is 100 to 300 µM.

Which IC50 does the source give for COc1ccc(OC2O[C@H](CCP(=O)(O)CC3CC3)[C@@H](O)[C@H](O)[C@@H]2O)cc1 (stereo partly drawn) [Compound A56, (cyclopropylmethyl) (2-((2R,3S,4S,5S)-3,4,5-trihydroxy-6-(4-methoxyphenoxy)tetrahydro-2H-pyran-2-yl)ethyl)phosphinic acid] here?
Its IC50 is under 10 µM.

O=P(O)(CC[C@H]1O[C@H](Oc2ccc3c(c2)Cc2ccccc2-3)[C@@H](O)[C@@H](O)[C@@H]1O)Cc1c(F)cccc1F [Compound A79, (2-((2R,3S,4S,5S,6R)-6-((9H-fluoren-2-yl)oxy)-3,4,5-trihydroxytetrahydro-2H-pyran-2-yl)ethyl) (2,6-difluorobenzyl)phosphinic acid] was tested. Which IC50 did it give?
Its IC50 is under 10 µM.

Which IC50 does the source give for C=CCP(=O)(O)CC[C@H]1OC(Oc2ccc(OC)cc2)[C@@H](O)[C@@H](O)[C@@H]1O (stereo partly drawn) [Compound A52, allyl(2-((2R,3S,4S,5S)-3,4,5-trihydroxy-6-(4-methoxyphenoxy)tetrahydro-2H-pyran-2-yl)ethyl)phosphinic acid] here?
The IC50 was 10 to 100 µM.

Which IC50 does the source give for O=P(O)(O)CC[C@H]1OC(CCc2ccccc2)[C@@H](O)[C@@H](O)[C@@H]1O (stereo partly drawn) [Compound A13, (2-((2R,3S,4R,5S)-3,4,5-trihydroxy-6-phenethyltetrahydro-2H-pyran-2-yl)ethyl)phosphonic acid] here?
Its IC50 is under 10 µM.

COc1ccc(O[C@H]2O[C@H](CCP(=O)(O)Cc3c(F)ccc(F)c3F)[C@@H](O)[C@H](O)[C@@H]2O)cc1 [Compound A54, (2,3,6-trifluorobenzyl) (2-((2R,3S,4S,5S)-3,4,5-trihydroxy-6-(4-methoxyphenoxy)tetrahydro-2H-pyran-2-yl)ethyl)phosphinic acid] was tested. Which IC50 did it give?
The IC50 was under 10 µM.

COc1ccc(OC2O[C@H](CCP(=O)(O)CC#N)[C@@H](O)[C@H](O)[C@@H]2O)cc1 (stereo partly drawn) [Compound A48, (cyanomethyl) (2-((2R,3S,4S,5S)-3,4,5-trihydroxy-6-(4-methoxyphenoxy)tetrahydro-2H-pyran-2-yl)ethyl)phosphinic acid] was tested. Which IC50 did it give?
Its IC50 is 10 to 100 µM.

For O=P(O)(CC[C@H]1O[C@H](OC2CCCCC2)[C@@H](O)[C@@H](O)[C@@H]1O)Cc1ccccc1O [Compound A47, 2-[(2R,3S,4S,5S,6S)-6-(cyclohexoxy)-3,4,5-trihydroxy-tetrahydropyran-2-yl]ethyl-[(2-hydroxyphenyl)methyl]phosphinic acid], which IC50 is on record?
Its IC50 is 10 to 100 µM.

For CC(=O)N1C[C@@H](O)[C@@H](O)[C@H](O)[C@H]1CCP(=O)(O)O [Compound A61, (2-((2R,3R,4R,5R)-1-acetyl-3,4,5-trihydroxypiperidin-2-yl)ethyl)phosphonic acid], which IC50 is on record?
The IC50 was 10 to 100 µM.

O=P(O)(O)CC[C@H]1O[C@H](c2cn(C3CCNCC3)nn2)[C@@H](O)[C@@H](O)[C@@H]1O [Compound A86, (2-((2R,3S,4S,5S,6R)-3,4,5-trihydroxy-6-(1-(piperidin-4-yl)-1H-1,2,3-triazol-4-yl)tetrahydro-2H-pyran-2-yl)ethyl)phosphonic acid] was tested. Which IC50 did it give?
The IC50 was under 10 µM.

For CC#CCP(=O)(O)CC[C@H]1OC(Oc2ccc(OC)cc2)[C@@H](O)[C@@H](O)[C@@H]1O (stereo partly drawn) [Compound A53, but-2-yn-1-yl(2-((2R,3S,4S,5S)-3,4,5-trihydroxy-6-(4-methoxyphenoxy)tetrahydro-2H-pyran-2-yl)ethyl)phosphinic acid], which IC50 is on record?
Its IC50 is 10 to 100 µM.

How did the IC50 turn out when COc1ccc(OC2O[C@H](CCP(=O)(O)CC3=CCCC3)[C@@H](O)[C@H](O)[C@@H]2O)cc1 (stereo partly drawn) [Compound A78, (cyclopent-1-en-1-ylmethyl) (2-((2R,3S,4S,5S)-3,4,5-trihydroxy-6-(4-methoxyphenoxy)tetrahydro-2H-pyran-2-yl)ethyl)phosphinic acid] was run?
Its IC50 is under 10 µM.

With COc1ccc(OC2O[C@H](CCP(=O)(O)C(O)c3ccccc3)[C@@H](O)[C@H](O)[C@@H]2O)cc1 (stereo partly drawn) [Compound A74, (hydroxy (phenyl)methyl) (2-((2R,3S,4S,5S)-3,4,5-trihydroxy-6-(4-methoxyphenoxy)tetrahydro-2H-pyran-2-yl)ethyl)phosphinic acid] as the compound, how does the IC50 read?
Its IC50 is under 10 µM.
